Results reported in PubChem BioAssay (NCI).
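Assay format: 96-well plates, 48-hour exposure. GI50 is the concentration that inhibits growth by half. TGI marks complete inhibition of growth.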

Legend:
Assay in all cases: NCI tumour cell line growth inhibition, 48 h
SNB-75 CNS = tested on: SNB-75 CNS
OVCAR-5 ovarian = tested on: OVCAR-5 ovarian
SW-620 colon = tested on: SW-620 colon
HS 578T breast = tested on: HS 578T breast
RPMI-8226 leukemia = tested on: RPMI-8226 leukemia
OVCAR-4 ovarian = tested on: OVCAR-4 ovarian
SK-OV-3 ovarian = tested on: SK-OV-3 ovarian
HOP-92 NSCLC = tested on: HOP-92 NSCLC
A549 NSCLC = tested on: A549 NSCLC
NCI-H226 lung = tested on: NCI-H226 lung
SF-268 CNS = tested on: SF-268 CNS
NCI-H460 lung = tested on: NCI-H460 lung
SK-MEL-5 melanoma = tested on: SK-MEL-5 melanoma
T-47D breast = tested on: T-47D breast
CCRF-CEM leukemia = tested on: CCRF-CEM leukemia
MDA-MB-435 = tested on: MDA-MB-435
COLO 205 colon = tested on: COLO 205 colon
K-562 leukemia = tested on: K-562 leukemia
IGROV1 ovarian = tested on: IGROV1 ovarian
SNB-19 CNS = tested on: SNB-19 CNS
KM12 colon = tested on: KM12 colon
MDA-MB-231 breast = tested on: MDA-MB-231 breast
HOP-62 NSCLC = tested on: HOP-62 NSCLC
HT29 colon = tested on: HT29 colon
OVCAR-8 ovarian = tested on: OVCAR-8 ovarian
MALME-3M melanoma = tested on: MALME-3M melanoma
MOLT-4 leukemia = tested on: MOLT-4 leukemia
SN12C renal = tested on: SN12C renal
HCT-15 colon = tested on: HCT-15 colon
UO-31 renal = tested on: UO-31 renal
BT-549 breast = tested on: BT-549 breast
DU-145 prostate = tested on: DU-145 prostate
NCI/ADR-RES ovarian = tested on: NCI/ADR-RES ovarian
TK-10 renal = tested on: TK-10 renal
SK-MEL-2 melanoma = tested on: SK-MEL-2 melanoma
NCI-H23 lung = tested on: NCI-H23 lung
CAKI-1 renal = tested on: CAKI-1 renal
UACC-257 melanoma = tested on: UACC-257 melanoma
HL-60(TB) leukemia = tested on: HL-60(TB) leukemia
UACC-62 melanoma = tested on: UACC-62 melanoma
EKVX NSCLC = tested on: EKVX NSCLC
U251 CNS = tested on: U251 CNS
SF-295 CNS = tested on: SF-295 CNS
RXF 393 renal = tested on: RXF 393 renal
SK-MEL-28 melanoma = tested on: SK-MEL-28 melanoma
LOX IMVI melanoma = tested on: LOX IMVI melanoma
NCI-H522 lung = tested on: NCI-H522 lung
M14 melanoma = tested on: M14 melanoma
SR leukemia = tested on: SR leukemia
HCC-2998 colon = tested on: HCC-2998 colon
PC-3 prostate = tested on: PC-3 prostate
A498 renal = tested on: A498 renal
ACHN renal = tested on: ACHN renal
MCF7 breast = tested on: MCF7 breast
SF-539 CNS = tested on: SF-539 CNS
786-0 renal = tested on: 786-0 renal

For `Nc1ccccc1NC(=O)c1ccc(NC(=O)C/C=C/c2cccnc2)cn1`, the GI50 (SNB-75 CNS) was 0.674 µM, the TGI (SNB-75 CNS) was > 47.6 µM and the GI50 (OVCAR-5 ovarian) was 0.509 µM. The TGI (OVCAR-5 ovarian) was > 50 µM, the GI50 (SW-620 colon) was 0.188 µM and the TGI (SW-620 colon) was > 14.8 µM. For the same molecule, the GI50 (HS 578T breast) was 0.826 µM, the TGI (HS 578T breast) was 37.1 µM and the GI50 (RPMI-8226 leukemia) was 0.336 µM. The TGI (RPMI-8226 leukemia) was > 10.2 µM, the GI50 (OVCAR-4 ovarian) was 1.99 µM and the TGI (OVCAR-4 ovarian) was > 50 µM. For the same molecule, the GI50 (SK-OV-3 ovarian) was 1.67 µM, the TGI (SK-OV-3 ovarian) was > 27.4 µM and the GI50 (HOP-92 NSCLC) was 0.0953 µM. The TGI (HOP-92 NSCLC) was 1.26 µM, the GI50 (A549 NSCLC) was 2.04 µM and the TGI (A549 NSCLC) was > 50 µM. It also gave a GI50 (NCI-H226 lung) of 1.08 µM, a TGI (NCI-H226 lung) of 19.6 µM and a GI50 (SF-268 CNS) of 1.3 µM. For the same molecule, the TGI (SF-268 CNS) was > 40 µM, the GI50 (NCI-H460 lung) was 0.745 µM and the TGI (NCI-H460 lung) was > 37.4 µM. The GI50 (SK-MEL-5 melanoma) was 0.958 µM, the TGI (SK-MEL-5 melanoma) was 2.37 µM and the GI50 (T-47D breast) was 0.279 µM. The TGI (T-47D breast) was > 13.7 µM, the GI50 (CCRF-CEM leukemia) was 0.216 µM and the TGI (CCRF-CEM leukemia) was > 50 µM. For the same molecule, the GI50 (MDA-MB-435) was 1.1 µM, the TGI (MDA-MB-435) was > 16 µM and the GI50 (COLO 205 colon) was 0.445 µM. The TGI (COLO 205 colon) was 2.39 µM, the GI50 (K-562 leukemia) was 0.213 µM and the TGI (K-562 leukemia) was > 50 µM. The GI50 (IGROV1 ovarian) was 0.601 µM, the TGI (IGROV1 ovarian) was > 50 µM and the GI50 (SNB-19 CNS) was 1.72 µM. The TGI (SNB-19 CNS) was > 50 µM, the GI50 (KM12 colon) was 1.43 µM and the TGI (KM12 colon) was > 20.5 µM. For the same molecule, the GI50 (MDA-MB-231 breast) was 3.35 µM, the TGI (MDA-MB-231 breast) was > 50 µM and the GI50 (HOP-62 NSCLC) was 1.11 µM. The TGI (HOP-62 NSCLC) was > 24.9 µM, the GI50 (HT29 colon) was 0.531 µM and the TGI (HT29 colon) was > 33.9 µM. The GI50 (OVCAR-8 ovarian) was 0.0839 µM, the TGI (OVCAR-8 ovarian) was > 50 µM and the GI50 (MALME-3M melanoma) was 0.19 µM. For the same molecule, the GI50 (MOLT-4 leukemia) was 0.724 µM, the TGI (MOLT-4 leukemia) was > 50 µM and the GI50 (SN12C renal) was 0.329 µM. The TGI (SN12C renal) was > 50 µM, the GI50 (HCT-15 colon) was 0.523 µM and the TGI (HCT-15 colon) was > 50 µM. For the same molecule, the GI50 (UO-31 renal) was 0.702 µM, the TGI (UO-31 renal) was 16.6 µM and the GI50 (BT-549 breast) was 0.777 µM. For the same molecule, the TGI (BT-549 breast) was 3.73 µM, the GI50 (DU-145 prostate) was 0.544 µM and the TGI (DU-145 prostate) was 2.06 µM. For the same molecule, the GI50 (NCI/ADR-RES ovarian) was 1.16 µM, the TGI (NCI/ADR-RES ovarian) was > 50 µM and the GI50 (TK-10 renal) was 0.0583 µM. For the same molecule, the TGI (TK-10 renal) was 1.8 µM, the GI50 (SK-MEL-2 melanoma) was 0.816 µM and the TGI (SK-MEL-2 melanoma) was 5.09 µM. For the same molecule, the GI50 (NCI-H23 lung) was 1.45 µM, the TGI (NCI-H23 lung) was > 24.9 µM and the GI50 (CAKI-1 renal) was 1.68 µM. For the same molecule, the TGI (CAKI-1 renal) was 13 µM, the GI50 (UACC-257 melanoma) was 0.798 µM and the TGI (UACC-257 melanoma) was > 13.3 µM. For the same molecule, the GI50 (HL-60(TB) leukemia) was 0.284 µM, the TGI (HL-60(TB) leukemia) was > 29.4 µM and the GI50 (UACC-62 melanoma) was 0.745 µM. The TGI (UACC-62 melanoma) was 3.6 µM, the GI50 (EKVX NSCLC) was 2.38 µM and the TGI (EKVX NSCLC) was > 50 µM. For the same molecule, the GI50 (U251 CNS) was 0.732 µM, the TGI (U251 CNS) was > 23.6 µM and the GI50 (SF-295 CNS) was 1.4 µM. It also gave a TGI (SF-295 CNS) of 8.28 µM, a GI50 (RXF 393 renal) of 0.864 µM and a TGI (RXF 393 renal) of 5.9 µM. It also gave a GI50 (SK-MEL-28 melanoma) of 0.866 µM, a TGI (SK-MEL-28 melanoma) of 2.65 µM and a GI50 (LOX IMVI melanoma) of 0.286 µM. The TGI (LOX IMVI melanoma) was 3.95 µM, the GI50 (NCI-H522 lung) was 0.334 µM and the TGI (NCI-H522 lung) was 3.37 µM. It also gave a GI50 (M14 melanoma) of 0.704 µM, a TGI (M14 melanoma) of 11.4 µM and a GI50 (SR leukemia) of 0.435 µM. The TGI (SR leukemia) was > 50 µM, the GI50 (HCC-2998 colon) was 0.801 µM and the TGI (HCC-2998 colon) was 4.26 µM. For the same molecule, the GI50 (PC-3 prostate) was 0.806 µM, the TGI (PC-3 prostate) was > 50 µM and the GI50 (A498 renal) was 0.347 µM. For the same molecule, the TGI (A498 renal) was 1.62 µM, the GI50 (ACHN renal) was 1.52 µM and the TGI (ACHN renal) was > 50 µM. For the same molecule, the GI50 (MCF7 breast) was 0.806 µM, the TGI (MCF7 breast) was > 13.5 µM and the GI50 (SF-539 CNS) was 0.148 µM. For the same molecule, the TGI (SF-539 CNS) was 3.07 µM, the GI50 (786-0 renal) was 1.52 µM and the TGI (786-0 renal) was 8.17 µM.
